# According to patent US12590134B2, “GLP-1 agonist polypeptide compound and salt thereof, synthesis method therefor and use thereof” (Sinopep-Allsino Biopharmaceutical Co., Ltd., priority 2020, dated 2026):
# Assays:
# [1] = tested on: db/db mice; assay: Glucose lowering experiment, random blood glucose of db/db mice after single subcutaneous injection; type: in vivo
# Description: (§1) After DB/DB mice with high blood glucose were acclimated for 5-7 days, a non-fasting random blood glucose level was determined; after fasting for 12 h, a fasting blood glucose level was determined by a rapid blood glucose meter. […] Mice in each test drug group and each control group received single subcutaneous injection of each test drug or a control solution respectively, and the mice in the model control group received single subcutaneous injection of PBS buffer solution; and the experiment grouping and dosage setting conditions were shown in Table 1:
# Blood glucose level: the blood was taken from the tail tip of the mice to measure the blood glucose level with a fast blood glucose meter and blood glucose test strips. […]
# The glucose lowering effect of the test article was evaluated by BG (mmol/L) or AUC (mmol/L·min).
# (§2) T test was used for comparison between two groups. One-way ANOVA was used for comparison among three or more groups. If there was a significant difference in F value, multiple comparisons should be performed after ANOVA analysis. All data analyses were performed with SPSS 17.0. If p<0.05, it was considered a significant difference.
# [2] = Effect on random body weight of db/db mice after single subcutaneous injection; type: in vivo; parameters: unit not given here
# Description: as §1
# Body weight: after grouping the animals, the body weight was measured once a day at a fixed time period
# as §2
substance,measurement,setting,value
Semaglutide,Random blood glucose,"[1]; 30 nmol/kg SC group, baseline at grouping before administration, X ± s, n = 8",25.8 ± 3.9 mmol/L
same,"Blood glucose at different time after administration, 0 h","[1]; 30 nmol/kg SC single dose, 0 h",26.8 ± 3.2 mmol/L
same,"Blood glucose at different time after administration, 2 h","[1]; 30 nmol/kg SC single dose, 2 h",14.9 ± 4.1 mmol/L
same,"Blood glucose at different time after administration, 4 h","[1]; 30 nmol/kg SC single dose, 4 h",13.2 ± 3.2 mmol/L
same,"Blood glucose at different time after administration, 6 h","[1]; 30 nmol/kg SC single dose, 6 h",13.3 ± 3.7 mmol/L
same,"Blood glucose at different time after administration, 10 h","[1]; 30 nmol/kg SC single dose, 10 h",11.5 ± 3.7 mmol/L
same,"Blood glucose at different time after administration, 24 h","[1]; 30 nmol/kg SC single dose, 24 h",12.6 ± 5.6 mmol/L
same,"Blood glucose at different time after administration, 36 h","[1]; 30 nmol/kg SC single dose, 36 h",21.1 ± 4.1 mmol/L
same,"Blood glucose at different time after administration, 48 h","[1]; 30 nmol/kg SC single dose, 48 h",21.3 ± 5.6 mmol/L
same,"Blood glucose at different time after administration, 56 h","[1]; 30 nmol/kg SC single dose, 56 h",28.3 ± 4.8 mmol/L
same,"Blood glucose at different time after administration, 72 h","[1]; 30 nmol/kg SC single dose, 72 h",32.3 ± 1.9 mmol/L
same,"Random body weight at different time after administration, Day 0","[2]; 30 nmol/kg SC single dose, Day 0",41.62 ± 1.56
same,"Random body weight at different time after administration, Day 1","[2]; 30 nmol/kg SC single dose, Day 1",38.86 ± 1.37
same,"Random body weight at different time after administration, Day 2","[2]; 30 nmol/kg SC single dose, Day 2",40.56 ± 1.51
same,"Random body weight at different time after administration, Day 3","[2]; 30 nmol/kg SC single dose, Day 3",41.03 ± 1.72
same,"Random body weight at different time after administration, Day −1","[2]; 30 nmol/kg group, Day −1 (before administration)",40.24 ± 1.44
same,"Random body weight at different time after administration, Day −2","[2]; 30 nmol/kg group, Day −2 (before administration), X ± s, n = 8",41.37 ± 1.64
